The values that follow come from patent US20230365592A1 (Agios Pharmaceuticals, Inc., priority 2022, published 2023).

Bounds are passed on as bounds.

One test addresses T1, human PAH with the R408W mutation (Homo sapiens, UniProt P00439, R408W).
T1 construct: expressed in transfected cells
T1 sequence (P00439 1-452 R408W): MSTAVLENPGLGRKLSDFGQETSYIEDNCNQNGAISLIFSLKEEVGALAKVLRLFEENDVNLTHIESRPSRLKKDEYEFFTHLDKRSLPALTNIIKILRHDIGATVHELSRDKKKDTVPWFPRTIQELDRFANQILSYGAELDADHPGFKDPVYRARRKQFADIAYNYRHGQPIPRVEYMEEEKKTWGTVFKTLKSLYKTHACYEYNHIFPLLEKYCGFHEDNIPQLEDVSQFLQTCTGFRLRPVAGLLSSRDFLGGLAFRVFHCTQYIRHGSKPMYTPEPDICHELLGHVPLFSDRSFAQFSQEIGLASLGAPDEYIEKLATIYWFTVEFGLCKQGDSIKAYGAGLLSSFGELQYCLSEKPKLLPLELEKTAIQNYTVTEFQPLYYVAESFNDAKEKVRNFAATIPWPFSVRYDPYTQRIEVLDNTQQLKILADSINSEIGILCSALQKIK
The test can be described thus: Cell Based Phenylalanine Flux Assay.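 Also: after compound treatment, cells received sepiapterin plus isotope-labelled Phenylalanine for 4 hours, then labelled Tyrosine in the medium was quantified, 10-point 2-fold dilution series run in duplicate.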 The conditions noted are these: A375 cells expressing R408W PAH; 24 hrs with compound, then 20 µM sepiapterin and 800 µM 13C9,15N-Phenylalanine for 4 hours; 13C-Tyrosine by LC-MS; average where tested multiple times; read-out: AC50.
For orientation: AC50 means the concentration at which the activity in the assay is half-maximal. In the case of `Cc1cccc2cc(C3c4nc[nH]c4CCN3c3nnc(C(C)(C)C)o3)nn12` (centres unmarked), the AC50 is 1 to 5 µM.
Turning to `CC(C)(C)c1nnc(C(=O)N2CCc3[nH]cnc3C2c2cc3cc(C(F)(F)F)ccn3n2)o1` (centres unmarked), the AC50 is 1 to 5 µM.
Take `Cc1nc(C(C)(C)O)oc1C(=O)N1CCc2[nH]cnc2[C@H]1c1cc2ccccn2n1` (single isomer, unassigned): the AC50 lay in the range of 1 to 5 µM.
On to `FC(F)c1nnc(N2CCc3[nH]cnc3C2c2cc3cccc(Cl)n3n2)o1` (centres unmarked), for which the AC50 was 1 to 5 µM.
Consider `Cn1cnc(-c2nnc(C(=O)N3CCc4[nH]cnc4[C@H]3c3cc4cccc(C(F)F)n4n3)o2)c1` (single isomer, unassigned), for which the AC50 was in the range of 1 to 5 µM.
For `Cc1cccc2cc(C3c4nc[nH]c4CCN3C(=O)c3cnco3)nn12` (centres unmarked), the AC50 lay within 1 to 5 µM.
Still for that read-out and setting: to `Nc1ccc(N2CCc3[nH]cnc3C2c2cc3ccccn3n2)nc1` (centres unmarked) belongs more than 5 µM.

Still in this test, the particulars now being: A375 cells expressing human PAH R408W; 24 hrs compound incubation; 13C-Tyrosine by LC-MS; average where tested multiple times; read-out: AC50.
For the molecule `FC(F)(F)c1nnc(N2CCc3[nH]cnc3[C@@H]2c2cc3c(Cl)cccn3n2)o1` [Example 1848, (R)-2-(4-(4-chloropyrazolo[1,5-a]pyridin-2-yl)-6,7-dihydro-1H-imidazo[4,5-c]pyridin-5(4H)-yl)-5-(trifluoromethyl)-1,3,4-oxadiazole], the concentration at half-maximal activity (AC50) was more than 5 µM.
Consider `Cc1cc(-c2nnc(C(=O)N3CCc4[nH]cnc4[C@H]3c3cc4c(C)cccn4n3)o2)n[nH]1` [Example 2291, (S)-(5-(5-methyl-1H-pyrazol-3-yl)-1,3,4-oxadiazol-2-yl)(4-(4-methylpyrazolo[1,5-a]pyridin-2-yl)-1,4,6,7-tetrahydro-5H-imidazo[4,5-c]pyridin-5-yl)methanone], for which the AC50 is 1 to 5 µM.
In the case of `Cc1cccc2cc([C@H]3c4nc[nH]c4CCN3c3ncc(C(F)(F)F)cn3)nn12` [Example 1803, (R)-4-(7-methylpyrazolo[1,5-a]pyridin-2-yl)-5-(5-(trifluoromethyl)pyrimidin-2-yl)-4,5,6,7-tetrahydro-1H-imidazo[4,5-c]pyridine], the AC50 is more than 5 µM.
Still for that read-out and setting: to `O=C(c1ocnc1C1CC1)N1CCc2[nH]cnc2[C@@H]1c1cc2cccc(Cl)n2n1` [Example 2043, (R)-(4-(7-chloropyrazolo[1,5-a]pyridin-2-yl)-1,4,6,7-tetrahydro-5H-imidazo[4,5-c]pyridin-5-yl)(4-cyclopropyloxazol-5-yl)methanone] belongs 1 to 5 µM; to `CC(C)c1nnc(N2CCc3[nH]cnc3[C@@H]2c2cc3c(F)cccn3n2)o1` [Example 2322, (R)-2-(4-(4-fluoropyrazolo[1,5-a]pyridin-2-yl)-1,4,6,7-tetrahydro-5H-imidazo[4,5-c]pyridin-5-yl)-5-isopropyl-1,3,4-oxadiazole], more than 5 µM; to `Cc1cccn2nc([C@@H]3c4nc[nH]c4CCN3C(=O)c3ncco3)cc12` [Example 1989, (S)-(4-(4-methylpyrazolo[1,5-a]pyridin-2-yl)-1,4,6,7-tetrahydro-5H-imidazo[4,5-c]pyridin-5-yl)(oxazol-2-yl)methanone], 0.5 to 1 µM.
`Cc1nnc(N2CCc3[nH]cnc3[C@H]2c2cc3c(C(C)C)cccn3n2)o1` [Example 2083, (S)-2-(4-(4-isopropylpyrazolo[1,5-a]pyridin-2-yl)-1,4,6,7-tetrahydro-5H-imidazo[4,5-c]pyridin-5-yl)-5-methyl-1,3,4-oxadiazole]: the AC50 is less than 0.5 µM.
Turning to `Cn1cc(-c2ncc(C(=O)N3CCc4[nH]cnc4[C@H]3c3cc4c(C(F)(F)F)cccn4n3)o2)cn1` [Example 2506, (S)-(2-(1-methyl-1H-pyrazol-4-yl)oxazol-5-yl)(4-(4-(trifluoromethyl)pyrazolo[1,5-a]pyridin-2-yl)-1,4,6,7-tetrahydro-5H-imidazo[4,5-c]pyridin-5-yl)methanone], the AC50 lay in the range of 1 to 5 µM.
Regarding `O=C(c1nnc(-c2cnccn2)o1)N1CCc2[nH]cnc2[C@H]1c1cc2c(OC(F)F)cccn2n1` [Example 2448, (S)-(4-(4-(difluoromethoxy)pyrazolo[1,5-a]pyridin-2-yl)-6,7-dihydro-1H-imidazo[4,5-c]pyridin-5(4H)-yl)(5-(pyrazin-2-yl)-1,3,4-oxadiazol-2-yl)methanone], the AC50 lay in the range of 1 to 5 µM.

Still in this test, the particulars now being: A375 cells expressing human R408W PAH; 24 hrs compound incubation; 13C-Tyrosine by LC-MS; average where tested multiple times; read-out: AC50.
As to `CC(C)(O)c1nc(Br)c(C(=O)N2CCc3[nH]cnc3[C@@H]2c2cc3c(F)cccn3n2)o1` [Example 747, (R)-(4-bromo-2-(2-hydroxypropan-2-yl)oxazol-5-yl)(4-(4-fluoropyrazolo[1,5-a]pyridin-2-yl)-6,7-dihydro-1H-imidazo[4,5-c]pyridin-5(4H)-yl)methanone], the AC50 was more than 5 µM.
In the case of `CC(C)(F)c1nnc(C(=O)N2CCc3[nH]cnc3[C@H]2c2cc3c(OC(F)F)cccn3n2)o1` [Example 1728, (S)-(4-(4-(difluoromethoxy)pyrazolo[1,5-a]pyridin-2-yl)-6,7-dihydro-1H-imidazo[4,5-c]pyridin-5(4H)-yl)(5-(2-fluoropropan-2-yl)-1,3,4-oxadiazol-2-yl)methanone], the AC50 fell in the range of 0.5 to 1 µM.
As to `COc1cccn2nc([C@@H]3c4nc[nH]c4CCN3C(=O)c3nnc(-c4cnn(C)c4C)o3)cc12` [Example 1206, (S)-(5-(1,5-dimethyl-1H-pyrazol-4-yl)-1,3,4-oxadiazol-2-yl)(4-(4-methoxypyrazolo[1,5-a]pyridin-2-yl)-6,7-dihydro-1H-imidazo[4,5-c]pyridin-5(4H)-yl)methanone], the AC50 fell in the range of 0.5 to 1 µM.
Still for that read-out and setting: the same measure for `CN(C)c1ccc2c(C(=O)N3CCc4[nH]cnc4[C@@H]3c3cc4c(C(F)(F)F)cccn4n3)cnn2c1` [Example 1747, (R)-(6-(dimethylamino)pyrazolo[1,5-a]pyridin-3-yl)(4-(4-(trifluoromethyl)pyrazolo[1,5-a]pyridin-2-yl)-6,7-dihydro-1H-imidazo[4,5-c]pyridin-5(4H)-yl)methanone]: more than 5 µM; for `O=C(c1cnn2cc(-c3ccccn3)ccc12)N1CCc2[nH]cnc2[C@@H]1c1cc2c(F)cccn2n1` [Example 1645, (R)-(4-(4-fluoropyrazolo[1,5-a]pyridin-2-yl)-6,7-dihydro-1H-imidazo[4,5-c]pyridin-5(4H)-yl)(6-(pyridin-2-yl)pyrazolo[1,5-a]pyridin-3-yl)methanone]: more than 5 µM.
The same measure, in the same setting: to `Cc1cccc2cc([C@@H]3c4nc[nH]c4CCN3C(=O)c3nnc(C4CC4)o3)nn12` [Example 940, (S)-(5-cyclopropyl-1,3,4-oxadiazol-2-yl)(4-(7-methylpyrazolo[1,5-a]pyridin-2-yl)-6,7-dihydro-1H-imidazo[4,5-c]pyridin-5(4H)-yl)methanone] belongs 0.5 to 1 µM; to `CC(C)(O)c1nc(C(F)F)c(C(=O)N2CCc3[nH]cnc3[C@H]2c2cc3c(Cl)cccn3n2)o1` [Example 700, (S)-(4-(4-chloropyrazolo[1,5-a]pyridin-2-yl)-6,7-dihydro-1H-imidazo[4,5-c]pyridin-5(4H)-yl)(4-(difluoromethyl)-2-(2-hydroxypropan-2-yl)oxazol-5-yl)methanone], less than 0.5 µM.
On the same count and under the same terms, the same measure for `Cc1cccn2nc([C@@H]3c4nc[nH]c4CCN3C(=O)c3nnc(-c4ccc(C(F)(F)F)cn4)o3)cc12` [Example 873, (S)-(4-(4-methylpyrazolo[1,5-a]pyridin-2-yl)-6,7-dihydro-1H-imidazo[4,5-c]pyridin-5(4H)-yl)(5-(5-(trifluoromethyl)pyridin-2-yl)-1,3,4-oxadiazol-2-yl)methanone]: 0.5 to 1 µM.
Regarding `Cc1cccn2nc([C@@H]3c4nc[nH]c4CCN3C(=O)c3nnc(-c4ccnn4C)o3)cc12` [Example 1016, (S)-(5-(1-methyl-1H-pyrazol-5-yl)-1,3,4-oxadiazol-2-yl)(4-(4-methylpyrazolo[1,5-a]pyridin-2-yl)-6,7-dihydro-1H-imidazo[4,5-c]pyridin-5(4H)-yl)methanone], the AC50 is less than 0.5 µM.
`Cc1cccn2nc([C@H]3c4nc[nH]c4CCN3C(=O)c3nnc(-c4cc(C)n(C)n4)o3)cc12` [Example 855, (R)-(5-(1,5-dimethyl-1H-pyrazol-3-yl)-1,3,4-oxadiazol-2-yl)(4-(4-methylpyrazolo[1,5-a]pyridin-2-yl)-6,7-dihydro-1H-imidazo[4,5-c]pyridin-5(4H)-yl)methanone]: the concentration at half-maximal activity (AC50) is more than 5 µM.
Consider `O=C(c1nnc(-c2cccnc2)o1)N1CCc2[nH]cnc2[C@H]1c1cc2c(F)cccn2n1` [Example 896, (S)-(4-(4-fluoropyrazolo[1,5-a]pyridin-2-yl)-6,7-dihydro-1H-imidazo[4,5-c]pyridin-5(4H)-yl)(5-(pyridin-3-yl)-1,3,4-oxadiazol-2-yl)methanone], for which the AC50 is less than 0.5 µM.
For `CC(C)c1nnc(C(=O)N2CCc3[nH]cnc3[C@H]2c2cc3cccc(C(F)F)n3n2)o1` [Example 1492, (S)-(4-(7-(difluoromethyl)pyrazolo[1,5-a]pyridin-2-yl)-6,7-dihydro-1H-imidazo[4,5-c]pyridin-5(4H)-yl)(5-isopropyl-1,3,4-oxadiazol-2-yl)methanone], the AC50 was in the range of 0.5 to 1 µM.
`O=C(c1oc(-c2ccccn2)nc1C(F)F)N1CCc2[nH]cnc2[C@@H]1c1cc2c(F)cccn2n1` [Example 1007, (R)-(4-(difluoromethyl)-2-(pyridin-2-yl)oxazol-5-yl)(4-(4-fluoropyrazolo[1,5-a]pyridin-2-yl)-6,7-dihydro-1H-imidazo[4,5-c]pyridin-5(4H)-yl)methanone]: the AC50 was in the range of 0.5 to 1 µM.
